Assay results reported in patent US11999697B2, “Methods and compositions for inhibition of dihydroorotate dehydrogenase” (OHIO STATE INNOVATION FOUNDATION, priority 2018, dated 2024).

Tests used:
[1] = target: T1, DHODH (Homo sapiens, UniProt Q02127); experiment: DHODH enzymatic assay (DCIP reduction); assay type: biochemical
T1 construct: made in house
Description: DHODH Enzymatic Assay: DHODH activity was determined at 25° C. following the reduction of 2,6-dichloroindophenol sodium salt (DCIP) at 600 nm (ε=18 800 M^−1 cm^−1) on a spectrophotometer. The reaction medium used contained 50 mM Tris-HCl, pH 8.0, 0.1% Triton X-100, 0.1 mM LDHO, 0.025 mM CoQ1, and 0.06 mM DCIP. The reaction was started by addition of the enzyme. The inhibitory potency of the compounds was evaluated by measuring the initial velocity of the reaction either in the absence or in the presence of the compounds at the indicated concentrations. The DHODH enzyme used was the recombinant human enzyme prepared as previously described (Helene Munier-Lehmann, et al., J. Med. Chem. 2015, 58:860-877).

[2] = tested on: THP1; experiment: MTS cell proliferation assay, THP1; assay type: cell-based; details: Homo sapiens, THP-1, 96 hours
Description: Triplicate wells were set up for each condition.
The assays were carried out in a blinded fashion.

[3] = tested on: primary human AML cells; experiment: Flow cytometry staining for differentiation (CD11b/CD14); assay type: cell-based; details: 1 μM, 14 days
Description: Flow cytometry staining for differentiation: Primary AML cells were solubilized from the methocult in the CFU assays. 5e5 cells were stained and analyzed by flow cytometry as follows: Gating on CD45 positive hematopoietic cells; B, T and NK-cells were identified using CD19, CD3 and NK1.1 surface markers; differentiation in the myeloid population was assessed by gating on CD34/CD33 positive myeloid cells and staining for CD11 b and CD14.
FIGS. 5A-5E show representative flow cytometry data for induction of CD11b and CD14 positive cells in primary human AML cells following vehicle treatment, treatment with a representative disclosed compound, Cpd3, or treatment with a reference compound, brequinar (indicated as “BQR” in the figures) using methods as described herein below. Briefly, primary AML cells were treated with vehicle (DMSO), Cpd3 (1 μM) or brequinar (BQR, 1 μM) and plated in methylcellulose for 14 days. Cells were recovered from the methylcellulose and characterized by flow cytometry (gating on CD34/CD33 positive myeloid cells and staining for CD11b and CD14). FIGS. 5A-5C show the percentage of CD11b and CD14 positive cells within the live CD33/CD34 positive population for a representative “responder” sample. FIGS. 5D and 5E show collective data for eight primary AML samples. […]

[4] = tested on: p53 signaling pathway in MOLM13, MV4-11, OCI-AML3; experiment: Immunoblots for MDM2, p53, p-γH2AX, p21 in AML cell lines; assay type: cell-based; details: 1 μM, 24 hours
Description: FIGS. 6A-6F show representative data and analysis for the effect of a representative disclosed compound, Cpd3, on the inhibition of MDM2. FIGS. 6A-6C show representative immunoblots for cells following vehicle treatment, treatment with a representative disclosed compound, Cpd3, or treatment with a reference compound, brequinar (indicated as “BQR” in the figures) using methods as described herein above. Briefly, AML cell lines were treated with vehicle, 1 μM Cpd3 or 1 μM BQR for 24 hours. Lysates were prepared and immunoblots were performed for MDM2, p53, p-γH2AX, p21 and GAPDH used as loading controls. […] That is, Cpd3 promotes a p53 response evident by both upregulation of the downstream target p21, with compensatory induction of MDM2. […] These preliminary data validate that Cpd3 is a potent inhibitor of DHODH in AML, and further preclinical development of Cpd3 is warranted.

[5] = tested on: AML cell lines (MOLM13, MV4-11, OCI-AML3); experiment: Formal synergy analysis (Combenefit, BLISS) with MDM2 inhibitor AMG-232; assay type: cell-based; details: Cpd3 0-10 μM with AMG-232 0-10 μM
Description: FIGS. 6D-6F show formal synergy analysis following treatment of different cell-lines (as indicated below) with a representative disclosed compound, Cpd3 (0-10 μM), in the presence or absence of an MDM2 inhibitor, AMG-232 (0-10 μM). The formal synergy analysis was carried out using the Combenefit analysis program (Cambridge Research UK, Cambridge Institute, University of Cambridge, United Kingdom; see also Di Veroli G Y, et al. Bioinformatics. 2016; 32:2866-2868). Combenefit analysis software uses the Loewe, Bliss, and HSA (Highest Single Agent) models to generate surface analyses with statistical significance and global metrics/scores. Data shown for the cell-lines in FIGS. 6D-6F were obtained using the BLISS analysis.

[6] = tested on: NK cell function (MV4-11 targets, normal donor NK cells); experiment: Antibody dependent cellular cytotoxicity (ADCC) assay by 51Cr release; assay type: cell-based, human; details: 1 μM, 4 hours 51Cr release
Description: Antibody Dependent Cellular Cytotoxicity (ADCC) Assay by ^51Cr Release: Assessment of NK-cell killing activity was performed using standard 4 hour ^51Cr release (CR) assay. Donor NK cells (effector cells) were isolated from the peripheral blood of normal donors (N=2). MV4-11 cells (target cells) were labeled with radioactive ^51Cr for 1 h at 37° C., washed, and plated in 96 well V-bottom plates at a density of 1×10^4 cells/well. Vehicle or 1 μM Cpd3 was added to either the NKs cells, the MV4-11 cells, or both prior to co-culturing. The ^51Cr labeled MV4-11 cells and NK cells were then co-cultured 25:1 or 12:1 effector to target (E:T) ratio in the presence of antibodies targeting the CD33 surface receptor (B133; B1836858), non-targeting isotype control (B147; B1836847), each at […], or no antibody control. Supernatants were collected after 4 h of co-culture and counted on a Perkin Elmer (Waltham, Mass.) Wizard γ-counter. The percentage of specific cell lysis was determined by: % lysis=100×(ER-SR)/(MR-SR). ER, SR, and MR represent experimental, spontaneous and maximum release. Data were normalized to the untreated control.
Briefly, a chromium (Cr^51) release antibody dependent cellular toxicity assay was carried out with MV4-11 cells (targets) and normal donor NK cells (effectors; N=2). […] Cr^51 release was measured following 4 hours of incubation to determine relative toxicity.

[7] = tested on: AML cell lines (MOLM13, MV4-11, THP1, HL-60, and OCI-AML3); experiment: cells; details: read-out: IC50 range for growth arrest in AML cell lines
Description: MTS assay for cell growth/viability: Mitochondrial activity was measured to determine cell proliferation using an MTS assay (tetrazolium dye 3′[4,5-dimethylthiazol-2-yl]-2,5-diphenyl-tetrazolium bromide). Metabolically active cells convert MTS tetrazolium salt into a purple formazan product that is soluble in tissue culture medium. The amount of formazan measured at 490 nm absorbance is proportional to the number of proliferating cells. […] Triplicate wells were set up for each condition. At 96 hours, the MTS reagent was added and after approximately 4 hours the plates were read in a spectrophotometer. MTS assays in primary AML cells were done in a similar manner as the cell lines with the following changes: 100K cells were plated per well, and the MTS was done in the presence of an HS5 stromal cell line to support the in vitro growth of the primary cells. Primary cells were incubated with MTS for approximately 8-12 hours (varies with the samples) before reading the absorbance.
Cell proliferation assays were carried out using the MTS assay described herein using five AML cell lines (i.e., MOLM13, MV4-11, THP1, HL-60, and OCI-AML3) with varied genetic backgrounds. The assays were carried out in a blinded fashion.

T1 sequence (Q02127 whole entry): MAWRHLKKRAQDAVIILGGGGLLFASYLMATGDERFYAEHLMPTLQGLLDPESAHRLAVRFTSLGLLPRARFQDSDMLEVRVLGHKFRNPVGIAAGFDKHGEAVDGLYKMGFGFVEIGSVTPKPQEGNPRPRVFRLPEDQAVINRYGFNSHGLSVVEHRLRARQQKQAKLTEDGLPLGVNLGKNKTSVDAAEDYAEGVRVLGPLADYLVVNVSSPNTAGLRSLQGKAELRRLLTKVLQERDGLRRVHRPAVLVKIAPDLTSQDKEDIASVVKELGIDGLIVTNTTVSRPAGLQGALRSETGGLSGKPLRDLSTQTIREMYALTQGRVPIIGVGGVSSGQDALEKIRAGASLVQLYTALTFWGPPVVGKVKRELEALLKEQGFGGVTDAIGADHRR

CCOc1ccc(-c2ccc(-c3cc(C(=O)O)c4cc(F)ccc4n3)cc2)cc1 [Cpd3, 2-(4′-ethoxy-[1,1′-biphenyl]-4-yl)-6-fluoroquinoline-4-carboxylic acid]
DHODH inhibition, % inhibition ([1]; compound concentration not given): 97% | IC50 ([1]; range in parentheses, read-out: DHODH inhibition, IC50): 43 nM | IC50 [2]: 1.1 µM | induction of CD11b and CD14 positive cells [3]: induces CD11 b and CD14 in primary human AML cells | induction of p53 signaling pathway and DNA damage [4]: induces the p53 signaling pathway and DNA damage | synergy with MDM2 inhibitor AMG-232 [5]: synergistic cell killing in AML cell lines | NK cell function [6]: does not impact NK cell function | IC50 [7]: 280 to 1100 nM
